Measurements from ChEMBL document CHEMBL5550183, “Discovery of Novel 1-Phenylpiperidine Urea-Containing Derivatives Inhibiting β-Catenin/BCL9 Interaction and Exerting Antitumor Efficacy through the Activation of Antigen Presentation of cDC1 Cells” (J Med Chem, 2024).

Key:
[1] = Toxicity in BALB/c mouse implanted with mouse CT26 cells assessed as body weight loss at 30 mg/kg, ip measured for 14 days; type: organism-based; conditions: in vivo, 336 h, time 14 day
[2] = Half life in ICR mouse at 1 mg/kg, iv measured upto 24 hrs by HPLC-MS/MS analysis; type: ADME, organism-based; conditions: in vivo
[3] = cells; conditions: Homo sapiens, HCT-116, 24 h
Description: Inhibition of Wnt/beta-catenin signaling pathway in human HCT-116 cells assessed as reduction in Axin2 expression incubated for 24 hrs by qPCR analysis

[4] = in vitro; conditions: mouse, liver microsomes
Description: Metabolic stability in mouse liver microsome assessed as half life preincubated with compound for 10 mins followed by NADPH addition and measured upto 60 mins by LC-MS/MS analysis

[5] = Cmax in ICR mouse at 1 mg/kg, iv measured upto 24 hrs by HPLC-MS/MS analysis; type: ADME, organism-based; conditions: in vivo
[6] = Tmax in ICR mouse at 1 mg/kg, iv measured upto 24 hrs by HPLC-MS/MS analysis; type: ADME, organism-based; conditions: in vivo
[7] = AUC (0 to t) in ICR mouse at 1 mg/kg, iv measured upto 24 hrs by HPLC-MS/MS analysis; type: ADME, organism-based; conditions: in vivo
[8] = in vitro; conditions: mouse, liver microsomes; remark: listed apart in the source
Description: Metabolic stability in mouse liver microsome assessed as clearance preincubated with compound for 10 mins followed by NADPH addition and measured upto 60 mins by LC-MS/MS analysis

[9] = test system: CT26; test: Antitumor activity against mouse CT26 cells implanted in BALB/c mouse assessed as tumor growth inhibition at 30 mg/kg, ip measured for 14 days; type: functional; conditions: CT26, 336 h, time 14 day, read-out: TGI
[10] = Clearance in ICR mouse at 1 mg/kg, iv measured upto 24 hrs by HPLC-MS/MS analysis; type: ADME, organism-based; conditions: in vivo
[11] = biological target: T1, beta-catenin-B-cell lymphoma 9 protein complex (Homo sapiens, UniProt P35222); test: Inhibition of full length his-tagged human beta-catenin (1 to 781 residues) expressed in Escherichia coli DE3/N-terminal FAM-tagged human BCL9 (350 to 375 residues) protein-protein interaction incubated for 2 hrs by fluorescence polarization assay
T1 sequence (P35222 whole entry): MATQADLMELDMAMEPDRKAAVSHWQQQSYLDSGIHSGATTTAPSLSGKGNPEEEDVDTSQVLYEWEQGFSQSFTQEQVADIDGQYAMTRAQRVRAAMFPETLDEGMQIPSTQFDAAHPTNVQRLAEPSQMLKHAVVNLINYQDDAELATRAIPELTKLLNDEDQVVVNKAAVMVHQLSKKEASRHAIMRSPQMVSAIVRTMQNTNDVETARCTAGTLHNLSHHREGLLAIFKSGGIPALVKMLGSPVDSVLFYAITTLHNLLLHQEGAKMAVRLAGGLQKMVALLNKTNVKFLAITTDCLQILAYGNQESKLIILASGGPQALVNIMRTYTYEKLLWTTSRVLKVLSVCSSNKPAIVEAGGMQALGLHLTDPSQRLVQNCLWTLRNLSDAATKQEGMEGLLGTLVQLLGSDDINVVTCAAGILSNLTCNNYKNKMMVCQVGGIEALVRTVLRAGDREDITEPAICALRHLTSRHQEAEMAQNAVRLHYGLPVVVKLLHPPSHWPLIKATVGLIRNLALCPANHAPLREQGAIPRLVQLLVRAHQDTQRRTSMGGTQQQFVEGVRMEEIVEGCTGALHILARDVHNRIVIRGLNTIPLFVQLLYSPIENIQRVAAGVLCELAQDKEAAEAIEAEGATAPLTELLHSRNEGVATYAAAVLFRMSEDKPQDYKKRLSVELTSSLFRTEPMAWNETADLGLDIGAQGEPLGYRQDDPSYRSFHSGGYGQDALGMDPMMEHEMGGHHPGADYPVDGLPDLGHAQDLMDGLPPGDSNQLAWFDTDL
T1 sequence (O00512 whole entry): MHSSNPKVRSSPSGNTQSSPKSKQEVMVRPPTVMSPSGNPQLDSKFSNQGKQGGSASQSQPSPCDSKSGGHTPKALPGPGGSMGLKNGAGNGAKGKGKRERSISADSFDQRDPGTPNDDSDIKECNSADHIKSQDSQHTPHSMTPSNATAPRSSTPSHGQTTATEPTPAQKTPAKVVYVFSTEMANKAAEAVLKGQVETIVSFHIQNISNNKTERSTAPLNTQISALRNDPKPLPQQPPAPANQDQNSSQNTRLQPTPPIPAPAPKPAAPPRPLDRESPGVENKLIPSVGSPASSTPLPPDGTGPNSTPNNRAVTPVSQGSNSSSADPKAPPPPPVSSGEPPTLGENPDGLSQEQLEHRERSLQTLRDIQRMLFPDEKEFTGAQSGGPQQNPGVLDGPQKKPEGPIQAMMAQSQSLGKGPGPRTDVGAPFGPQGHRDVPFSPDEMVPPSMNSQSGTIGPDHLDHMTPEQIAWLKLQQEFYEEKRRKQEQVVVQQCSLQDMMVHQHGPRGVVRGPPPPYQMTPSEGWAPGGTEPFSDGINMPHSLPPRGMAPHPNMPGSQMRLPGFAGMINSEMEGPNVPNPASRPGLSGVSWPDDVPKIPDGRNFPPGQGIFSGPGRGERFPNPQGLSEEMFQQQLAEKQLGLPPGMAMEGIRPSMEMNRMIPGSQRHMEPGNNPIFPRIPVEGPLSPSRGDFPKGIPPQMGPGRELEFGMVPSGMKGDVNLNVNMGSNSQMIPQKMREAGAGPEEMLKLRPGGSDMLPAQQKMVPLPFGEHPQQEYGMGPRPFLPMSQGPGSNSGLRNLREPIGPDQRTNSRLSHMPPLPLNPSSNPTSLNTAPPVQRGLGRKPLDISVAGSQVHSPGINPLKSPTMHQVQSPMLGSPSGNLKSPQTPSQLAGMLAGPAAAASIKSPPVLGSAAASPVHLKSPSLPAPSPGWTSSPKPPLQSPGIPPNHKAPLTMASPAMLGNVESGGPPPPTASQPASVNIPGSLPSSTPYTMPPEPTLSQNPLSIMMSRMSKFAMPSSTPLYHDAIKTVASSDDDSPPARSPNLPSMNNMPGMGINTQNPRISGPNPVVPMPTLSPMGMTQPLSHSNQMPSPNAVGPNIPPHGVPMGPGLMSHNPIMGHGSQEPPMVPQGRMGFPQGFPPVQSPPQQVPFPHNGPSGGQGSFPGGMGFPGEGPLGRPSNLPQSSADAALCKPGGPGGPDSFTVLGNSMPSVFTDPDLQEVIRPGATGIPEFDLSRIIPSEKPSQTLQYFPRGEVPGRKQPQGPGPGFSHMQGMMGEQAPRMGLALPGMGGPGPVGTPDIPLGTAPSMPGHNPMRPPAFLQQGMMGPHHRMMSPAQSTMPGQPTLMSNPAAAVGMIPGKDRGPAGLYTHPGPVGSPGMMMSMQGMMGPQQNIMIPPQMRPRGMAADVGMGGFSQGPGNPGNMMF

[12] = biological target: T2, Catenin beta-1 (Homo sapiens, UniProt P35222); test: Binding affinity to full length his-tagged human beta-catenin (1 to 781 residues) expressed in Escherichia coli DE3 assessed as dissociation constant by SPR analysis
T2 sequence (P35222 whole entry): T1 sequence (P35222 whole entry)

[13] = biological target: T1, beta-catenin-B-cell lymphoma 9 protein complex; test: Inhibition of beta-catenin (unknown origin)/BCL9 (unknown origin) protein-protein interaction; type: protein-complex assay
[14] = Antitumor activity against mouse PBMC cells implanted in BALB/c mouse assessed as increase in CD103 + XCR1 cDC1 expression at 30 mg/kg, ip measured for 7 days by qPCR analysis; type: functional; conditions: time 7 day
[15] = test system: CT26; test: Antitumor activity against mouse CT26 cells implanted in BALB/c mouse assessed as tumor growth inhibition at 30 mg/kg, ip measured for 7 days; conditions: CT26, 168 h, read-out: TGI
[16] = test system: CT26; test: Antitumor activity against mouse CT26 cells implanted in BALB/c mouse assessed as increase in CD103+ expression level at 30 mg/kg, ip measured for 7 days by flow cytometry analysis (reference value: 4.95%); type: functional; conditions: time 7 day

| Compound | IC50 [3] | IC50 [11] | Kd [12] | also measured |
| --- | --- | --- | --- | --- |
| CC(C)(Oc1cccc(N2CCC[C@H](NC(=O)N(Cc3ccc(-c4cn[nH]c4)cc3)C3CC3)C2)c1)C(=O)N1CCNCC1 | 4.35 µM | – | – | – |
| CC(C)(Oc1cccc(N2CCC[C@@H](NC(=O)N(Cc3ccc(-c4cn[nH]c4)cc3)C3CC3)C2)c1)C(=O)N1CCNCC1 | 4.67 µM | – | – | – |
| CC(C)(Oc1cccc(N2CCC[C@H](NC(=O)N(Cc3ccc(-c4cn[nH]c4)cc3)C3CC3)C2)c1)C(=O)N1CCOCC1 | 8.24 µM | – | – | – |
| CC(C)(Oc1cccc(N2CCC[C@H](NC(=O)N(Cc3ccc(-c4cn[nH]c4)cc3)C3CC3)C2)c1)C(=O)NCCCN | > 10 µM | – | – | – |
| CC(C)(Oc1cccc(N2CCC[C@H](NC(=O)N(Cc3ccc(-c4cn[nH]c4)cc3)C3CC3)C2)c1)C(=O)NCC(=O)N1CCCC1CCN (stereo partly specified) | 5.3 µM | 2.06 µM | 0.64 µM | – |
| CCCC(=O)Oc1ccc([N+](=O)[O-])cc1 | – | – | – | Ki [13]: 2.1 µM |
| CC(C)(Oc1cccc(N2CCC[C@H](NC(=O)N(Cc3ccc(-c4cn[nH]c4)cc3)C3CC3)C2)c1)C(=O)NCCN | 7.5 µM | 1.83 µM | 0.25 µM | – |
| CC(C)(Oc1cccc(N2CCC[C@@H](C(=O)N(Cc3ccc(-c4cn[nH]c4)cc3)C3CC3)C2)c1)C(=O)N1CCNCC1 | 3.34 µM | – | – | Activity [14]: 5.17%; inhibition in vivo at 30 mg/kg [15]: 44.1%; half-life at 1 h [4]: 2.37 min; microsomal CLint at 1 h [8]: 888 µL/min/mg; inhibition in vivo at 30 mg/kg [9]: 42.4%; Activity [16]: 14.9% |
| CC(C)(Oc1cccc(N2CCC[C@@H](NC(=O)N(Cc3ccc(-c4cn[nH]c4)cc3)C3CC3)C2)c1)C(=O)NCC(=O)N1CCCC1CCN (stereo partly specified) | 4.45 µM | 3.92 µM | 0.082 µM | – |

Further compounds by falling IC50 [3], results first:

| IC50 [3] | IC50 [11] | Kd [12] | Compound | also measured |
| --- | --- | --- | --- | --- |
| 5.41 µM | – | – | CC(C)(Oc1cccc(N2CCC[C@@H](NC(=O)N(Cc3ccc(-c4cn[nH]c4)cc3)C3CC3)C2)c1)C(=O)N1CCOCC1 | – |
| 3.34 µM | – | – | O=C1[C@H](Cc2ccc(O)cc2)N2C(=O)CCN(C(=O)NCc3ccccc3)[C@H]2CN1Cc1cccc2ccccc12 | – |
| 2.88 µM | – | – | CC(C)(Oc1cccc(N2CCC[C@@H](NC(=O)N(Cc3ccc(-c4cn[nH]c4)cc3)C3CC3)C2)c1)C(=O)NCCCN | Activity [1]: Non-Toxic; half-life [2]: 40.2 min; half-life at 1 h [4]: 31.5 min; Cmax [5]: 910 ng/mL; Tmax [6]: 4.8 min; AUC(0-t) at 24 h [7]: 430 ng·h/mL; microsomal CLint at 1 h [8]: 67 µL/min/mg; inhibition in vivo at 30 mg/kg [9]: 56.4%; clearance [10]: 40 mL/min/kg |
| 2.54 µM | > 20 µM | 0.25 µM | CC(C)(Oc1cccc(N2CCC[C@@H](NC(=O)N(Cc3ccc(-c4cn[nH]c4)cc3)C3CC3)C2)c1)C(=O)NCCN | – |
